Laboratory results taken from patent US20260008856A1, “METHODS OF TREATING DISEASE USING ANTI-IL1RAP ANTIBODIES AND ANTIBODY DRUG CONJUGATES” (Bluefin Biomedicine, Inc., priority 2022, published 2026).

Key:
[1] = system: TARC production in HDM stimulated human PBMCs; assay: TARC production in HDM stimulated human PBMCs; assay type: cell-based
Description: Materials included Human peripheral blood mononuclear cells (PBMCs) that were isolated from healthy donor blood and either frozen in liquid nitrogen and thawed prior to analysis or used fresh. Materials also included HDM (house dust mite extract) that was from Greer lab and purchased through Fisher Scientific (NC9756554, Lot #390844). Additionally, Human IL-4 (204-IL-010) was purchased from R&D Systems; Human IL-13 (200-13) was purchased from Peprotech; JAK inhibitors (JAKi) Abrocitinib (HY-107429) and Upadacitinib (HY-19569) were purchased from MedChemExpress; Dexamethasone (D4902) was purchased from Sigma-Aldrich; Dupilumab (HY-P9926) was purchased from MedChemExpress; Tralokinumab was produced by Bluefin Biomedicine according to the published protein sequence; and TARC ELISA kits (DuoSet Cat #DY364, Quantikine Cat #SDN00) were purchased from R&D Systems.
Blood was drawn in heparin tubes from healthy volunteers. PBMCs were isolated by centrifugation of the blood over Ficoll-Paque Plus density gradients using LeucoSep tubes.
(§1) 0.2 million PBMCs in 100 ul medium (RPMI1640, 10% heat-inactivated FBS) were added to each well of 96 well cell culture plate. BFB759 at multiple concentrations in 50 ul medium was added to the wells. The cells were incubated in the incubator for 45 min. Then, 50 ul HDM solution (final concentration 10 ug/ml) was added to the wells. After 7 days incubation, the supernatant was transferred to a new 96 well plate, and used in TARC ELISA right away, or frozen in −80 C freezer for ELISA later. For the combination studies of BFB759 with other drugs, the single agent or combination of drugs were added to the PBMCs, incubated for 45 min, then HDM solution, or HDM and IL-4 or IL-13 solution were added to the wells. The assay was incubated for 7 days, and the supernatant was harvested for TARC ELISA.

[2] = system: TARC expression in PBMCs stimulated with HDM and IL-4; assay: TARC in PBMCs treated by HDM and hIL-4; assay type: cell-based, human; conditions: HDM 10 ug/ml, IL-4 750 ug/ml; three antibody concentrations
Protocol: as §1
Dupilumab is approved for treatment of AD (Atopic Dermatitis). It inhibits IL-4/13 signaling by blocking their binding to IL-4Ra. […] (FIG. 15)
In the data shown in FIG. 15, HDM was used at 10 ug/ml, IL-4 was used at […], antibodies were at three different concentrations as shown in the graph. Data shown are mean±s.d.

[3] = system: normal human dermal fibroblasts (NHDF); assay: IL-6 and IL-8 production in NHDF stimulated with cytokine combo incl. IL-17A; assay type: cell-based; conditions: cytokine combo IL-1α/β, IL-36α/β/γ, antibodies 0-20 ug/ml, BFB759 0.5 ug/ml in combination
Protocol: (§2) Human NHDF cells were plated on 96-well, flat-bottom plates at 4,000 cells/well. […] For combination therapy, 0.5 ug/ml BFB759 was mixed with Secukinumab or Isotype control antibody at increasing concentrations (0-20 ug/ml, 5-fold dilution) and incubated with cells in duplicate for 45 minutes, prior to the addition of cytokine combo. The plates were then incubated overnight at 37° C., 5% CO2. 24 hours after treatment, supernatants were transferred and assayed for IL-6 and IL-8, as per manufacture's protocol (R&D Systems; Human IL-6 DuoSet ELISA, Human IL-8/CXCL8 DuoSet ELISA). The raw assay data were analyzed using GraphPad Prism 9 software to perform a non-linear regression.

[4] = system: IL-6 secretion in human whole blood cultures stimulated with HKCA; assay: IL-6 production in human whole blood cultures stimulated with heat-killed Candida albicans; assay type: cell-based; conditions: 24 hours, 1 μg/ml alone, combination 1 μg/ml BFB759 + 0.5 μg/ml adalimumab
Description: Materials included Human peripheral blood drawn from 5 healthy donors. Materials also included Anti-human TNF alpha (Adalimumab Biosimilar), BioXCell cat #SIM0001, lot #8024221F1; Heat-killed Candida albicans (HKCA), InvivoGen cat #tlrl-hkca, lot #6292-44-02; RPMI 1640 with L-glutamine and HEPES, Corning cat #10-041-CM; and Human IL-6 DuoSet ELISA, R and D Systems cat #DY206-05. Blood was drawn into heparin tubes from healthy volunteers. Whole blood cultures comprised of whole blood diluted with plain RPMI 1640 medium were set up in sterile 5.0 ml polypropylene snap cap culture tubes. One of the following treatments were added for 1 hour prior to either being left unstimulated or receiving stimulation with 1.5×10^6 cells heat-killed Candida albicans: medium alone (cells alone), 1 μg/ml IgG1 isotype control antibody alone, 1 μg/ml BFB759 alone, 1 μg/ml adalimumab alone, or one of two combination treatments of 1 μg/ml IgG1 isotype control antibody+0.5 μg/ml adalimumab or 1 μg/ml BFB759+0.5 μg/ml adalimumab. The final volume of each culture was 1.0 ml. Cultures were incubated for 24 hours at 37° C./5% CO2. Supernatants harvested from each culture in duplicate were frozen at −80° C. until assayed in duplicate for IL-6 levels by ELISA.

[5] = system: normal human dermal fibroblasts (NHDF); assay: IL-6 and IL-8 production in NHDF stimulated with cytokine combo incl. TNF-α; assay type: cell-based; conditions: cytokine combo IL-1α/β, IL-36α/β/γ, antibodies 0-20 ug/ml, BFB759 0.5 ug/ml in combination
Protocol: as §2, with “adalimumab” for “Secukinumab”, “isotype” for “Isotype”

For `CCCS(=O)(=O)N[C@H]1C[C@@H](N(C)c2ncnc3[nH]ccc23)C1` [Abrocitinib], which “inhibition of TARC in HDM stimulated cells” value ([1]; HDM 10 ug/ml, JAKi and dexamethasone 0.1 nM, 10 nM, 1 uM, BFB759 1 ug/ml in combination) is on record?
Its value is “dose dependent inhibition”.

How did the “inhibition of TARC level” value ([1]; HDM stimulated PBMCs, same assay) turn out when “Dupilumab: approved for Atopic Dermatitis; inhibits IL-4/13 signaling by blocking their binding to IL-4Ra” was run?
The value was “does not inhibit TARC level significantly”.

What about the “inhibition of HDM induced TARC level, FIG. 13” value ([1]; antibodies 30 ug/ml, HDM 10 ug/ml) of the same molecule?
Its value is “does not or minimally inhibits”.

And the “inhibition of TARC expression in the HDM and IL-4 model” value [2]?
The value was “partially inhibits”.

With “Secukinumab: anti-IL-17A antibody [reference compound]” as the molecule, how does the IL-6 production [3] read?
The IL-6 production was “limited inhibition”.

What about the IL-8 production [3] of the same molecule?
Its IL-8 production is “limited inhibition”.

How did the “inhibition of IL-6 secretion” value [4] turn out when adalimumab [reference compound] was run?
The value was “inhibit IL-6 secretion”.

What about the IL-6 production [5] of the same molecule?
Its IL-6 production is “limited inhibition”.

What about the IL-8 production [5] of the same molecule?
The IL-8 production was “limited inhibition”.
